Results: patent publication US12540141B2, “Spiropyrrolidine derived antiviral agents” (priority 2020, dated 2026)

Target: SARS-CoV-2 3CL-protease (Severe acute respiratory syndrome coronavirus 2, UniProt P0DTD1)
Assay: SARS-CoV-2 3C-Like (3CL) Protease Fluorescence Assay (FRET)
Assay type: biochemical
Settings: SARS-CoV-2 3CL-protease 10 nM, 30 min preincubation at RT, substrate 40 μM

SMILES | IC50
CC(C)C[C@@H](C(=O)N1C[C@]2(C[C@H]1C#N)C(=O)Nc1ccccc12)N(C)C(=O)c1ccncc1 [Example 194] | 100 to 1000 nM
CC(C)C[C@@H](C(=O)N1C[C@]2(C[C@H]1C#N)C(=O)Nc1ccccc12)N(C)C(=O)c1cncc(C(F)(F)F)c1 [Example 195] | < 100 nM
CC(C)C[C@@H](C(=O)N1C[C@]2(C[C@H]1C#N)C(=O)Nc1ccccc12)N(C)C(=O)c1cncc(F)c1 [Example 196] | < 100 nM
CC(C)C[C@@H](C(=O)N1C[C@]2(C[C@H]1C#N)C(=O)Nc1ccccc12)N(C)C(=O)c1cc(F)ccn1 [Example 197] | 100 to 1000 nM
CC(C)C[C@@H](C(=O)N1C[C@]2(C[C@H]1C#N)C(=O)Nc1ccccc12)N(C)C(=O)c1ccc(F)cn1 [Example 198] | 100 to 1000 nM
CC(C)C[C@@H](C(=O)N1C[C@]2(C[C@H]1C#N)C(=O)Nc1ccccc12)N(C)C(=O)c1cccc(N)n1 [Example 199] | 100 to 1000 nM
CC(C)C[C@@H](C(=O)N1C[C@]2(C[C@H]1C#N)C(=O)Nc1ccccc12)N(C)C(=O)c1cnccn1 [Example 200] | < 100 nM
CC(C)C[C@@H](C(=O)N1C[C@]2(C[C@H]1C#N)C(=O)Nc1ccccc12)N(C)C(=O)c1cn(C)cn1 [Example 201] | 100 to 1000 nM
CC(C)C[C@@H](C(=O)N1C[C@]2(C[C@H]1C#N)C(=O)Nc1ccccc12)N(C)C(=O)c1ccn[nH]1 [Example 202] | 100 to 1000 nM
CC(C)C[C@@H](C(=O)N1C[C@]2(C[C@H]1C#N)C(=O)Nc1ccccc12)N(C)C(=O)c1ccnn1C [Example 203] | < 100 nM
CC(C)C[C@@H](C(=O)N1C[C@]2(C[C@H]1C#N)C(=O)Nc1ccccc12)N(C)C(=O)c1ccn(C)n1 [Example 204] | 100 to 1000 nM
CC(C)C[C@@H](C(=O)N1C[C@]2(C[C@H]1C#N)C(=O)Nc1ccccc12)N(C)C(=O)c1nc2ccccc2[nH]1 [Example 205] | < 100 nM
CC(C)C[C@@H](C(=O)N1C[C@]2(C[C@H]1C#N)C(=O)Nc1ccccc12)N(C)C(=O)c1nc2ccccc2s1 [Example 206] | 100 to 1000 nM
CC(C)C[C@@H](C(=O)N1C[C@]2(C[C@H]1C#N)C(=O)Nc1ccccc12)N(C)C(=O)c1cc2ccccc2s1 [Example 207] | < 100 nM
CC(C)C[C@@H](C(=O)N1C[C@]2(C[C@H]1C#N)C(=O)Nc1ccccc12)N(C)C(=O)c1cc2ccccc2o1 [Example 208] | < 100 nM
CC(C)C[C@@H](C(=O)N1C[C@]2(C[C@H]1C#N)C(=O)Nc1ccccc12)N(C)C(=O)c1cc2sccc2[nH]1 [Example 209] | < 100 nM
CC(C)C[C@@H](C(=O)N1C[C@]2(C[C@H]1C#N)C(=O)Nc1ccccc12)N(C)C(=O)c1ccc2ncccc2c1 [Example 210] | < 100 nM
CC(C)C[C@@H](C(=O)N1C[C@]2(C[C@H]1C#N)C(=O)Nc1ccccc12)N(C)C(=O)c1ccc2ccccc2n1 [Example 211] | 100 to 1000 nM
CC(C)C[C@@H](C(=O)N1C[C@]2(C[C@H]1C#N)C(=O)Nc1ccccc12)N(C)C(=O)c1cc2ccccc2cn1 [Example 212] | < 100 nM
CC(C)C[C@@H](C(=O)N1C[C@]2(C[C@H]1C#N)C(=O)Nc1ccccc12)N(C)C(=O)c1cnc2ccccc2c1 [Example 213] | < 100 nM
CC(C)C[C@@H](C(=O)N1C[C@]2(C[C@H]1C#N)C(=O)Nc1ccccc12)N(C)C(=O)c1cccc2ncccc12 [Example 214] | < 100 nM

SMILES | IC50
CC(C)C[C@@H](C(=O)N1C[C@]2(C[C@H]1C#N)C(=O)Nc1ccccc12)N(C)C(=O)c1cccc2cnccc12 [Example 215] | < 100 nM
CC(C)C[C@@H](C(=O)N1C[C@]2(C[C@H]1C#N)C(=O)Nc1ccccc12)N(C)C(=O)c1ccc2cnccc2c1 [Example 216] | < 100 nM
CC(C)C[C@@H](C(=O)N1C[C@]2(C[C@H]1C#N)C(=O)Nc1ccccc12)N(C)C(=O)c1ccc2ccncc2c1 [Example 217] | 100 to 1000 nM
CC(C)C[C@@H](C(=O)N1C[C@]2(C[C@H]1C#N)C(=O)Nc1ccccc12)N(C)C(=O)c1ccc2cccnc2c1 [Example 218] | 100 to 1000 nM
CC(C)C[C@@H](C(=O)N1C[C@]2(C[C@H]1C#N)C(=O)Nc1ccccc12)N(C)C(=O)c1ccc2ccccc2c1 [Example 219] | 100 to 1000 nM
CC(C)C[C@@H](C(=O)N1C[C@]2(C[C@H]1C#N)C(=O)Nc1ccccc12)N(C)C(=O)c1ccc(F)c2ccccc12 [Example 221] | < 100 nM
CC(C)C[C@@H](C(=O)N1C[C@]2(C[C@H]1C#N)C(=O)Nc1ccccc12)N(C)C(=O)c1ccc2cc(F)ccc2c1 [Example 222] | 100 to 1000 nM
CC(C)C[C@@H](C(=O)N1C[C@]2(C[C@H]1C#N)C(=O)Nc1ccccc12)N(C)C(=O)c1ccc2cn[nH]c2c1 [Example 223] | 100 to 1000 nM
CC(C)C[C@@H](C(=O)N1C[C@]2(C[C@H]1C#N)C(=O)Nc1ccccc12)N(C)C(=O)c1ccc2cnn(C)c2c1 [Example 224] | < 100 nM
CC(C)C[C@@H](C(=O)N1C[C@]2(C[C@H]1C#N)C(=O)Nc1ccccc12)N(C)C(=O)c1ccc2nc(N)sc2c1 [Example 225] | > 1000 nM
CC(C)C[C@@H](C(=O)N1C[C@]2(C[C@H]1C#N)C(=O)Nc1ccccc12)N(C)C(=O)Cc1ccccc1 [Example 226] | < 100 nM
CC(C)C[C@@H](C(=O)N1C[C@]2(C[C@H]1C#N)C(=O)Nc1ccccc12)N(C)C(=O)CCc1ccccc1 [Example 227] | < 100 nM
CC(C)C[C@@H](C(=O)N1C[C@]2(C[C@H]1C#N)C(=O)Nc1ccccc12)N(C)C(=O)/C=C/c1ccccc1 [Example 228] | < 100 nM
CC(C)C[C@@H](C(=O)N1C[C@]2(C[C@H]1C#N)C(=O)Nc1ccccc12)N(C)C(=O)COc1ccccc1 [Example 229] | < 100 nM
CC(C)C[C@@H](C(=O)N1C[C@]2(C[C@H]1C#N)C(=O)Nc1ccccc12)N(C)C(=O)c1ccc2c(Br)cccc2n1 [Example 231] | 100 to 1000 nM
Cc1ccc2cc(C(=O)N(C)[C@@H](CC(C)C)C(=O)N3C[C@]4(C[C@H]3C#N)C(=O)Nc3ccccc34)ccc2n1 [Example 234] | < 100 nM
CC(C)C[C@@H](C(=O)N1C[C@]2(C[C@H]1C#N)C(=O)Nc1ccccc12)N(C)C(=O)c1ccc2ncc(F)cc2c1 [Example 235] | < 100 nM
CC(C)C[C@@H](C(=O)N1C[C@]2(C[C@H]1C#N)C(=O)Nc1ccccc12)N(C)C(=O)c1cc2ccc(Br)cc2cn1 [Example 236] | 100 to 1000 nM
CC(C)C[C@@H](C(=O)N1C[C@]2(C[C@H]1C#N)C(=O)Nc1ccccc12)N(C)C(=O)c1ccc2ncc(C(F)(F)F)cc2c1 [Example 237] | < 100 nM
Cc1cc2cc(C(=O)N(C)[C@@H](CC(C)C)C(=O)N3C[C@]4(C[C@H]3C#N)C(=O)Nc3ccccc34)cc(OC(F)(F)F)c2nc1C [Example 238] | < 100 nM
CC(C)C[C@@H](C(=O)N1C[C@]2(C[C@H]1C#N)C(=O)Nc1ccccc12)N(C)C(=O)c1cc(Cl)c2ncc(C3CC3)cc2c1 [Example 239] | 100 to 1000 nM

SMILES | IC50
CC(C)C[C@@H](C(=O)N1C[C@]2(C[C@H]1C#N)C(=O)Nc1ccccc12)N(C)C(=O)c1cc(Cl)c2ncc(C(F)(F)F)cc2c1 [Example 240] | < 100 nM
CC(C)C[C@@H](C(=O)N1C[C@]2(C[C@H]1C#N)C(=O)Nc1ccccc12)N(C)C(=O)c1cccc2ccccc12 [Example 241] | < 100 nM
CC(C)C[C@@H](C(=O)N1C[C@]2(C[C@H]1C#N)C(=O)Nc1ccccc12)N(C)C(=O)c1ccc2ccsc2c1 [Example 246] | 100 to 1000 nM
CC(C)C[C@@H](C(=O)N1C[C@]2(C[C@H]1C#N)C(=O)Nc1ccccc12)N(C)C(=O)c1cc2ccccn2n1 [Example 247] | 100 to 1000 nM
CC(C)C[C@@H](C(=O)N1C[C@]2(C[C@H]1C#N)C(=O)Nc1ccccc12)N(C)C(=O)C#Cc1ccccc1 [Example 248] | 100 to 1000 nM
COc1ccc2[nH]c(C(=O)N(C)[C@@H](CC(C)C)C(=O)N3C[C@]4(C[C@H]3C#N)C(=O)Nc3ccccc34)nc2c1 [Example 249] | < 100 nM
CC(C)C[C@@H](C(=O)N1C[C@]2(C[C@H]1C#N)C(=O)Nc1ccccc12)N(C)C(=O)c1nc2cc(F)ccc2[nH]1 [Example 250] | < 100 nM
CC(C)C[C@@H](C(=O)N1C[C@]2(C[C@H]1C#N)C(=O)Nc1ccccc12)N(C)C(=O)c1nc2cc(Cl)c(Cl)cc2[nH]1 [Example 251] | 100 to 1000 nM
Cc1cccc2[nH]c(C(=O)N(C)[C@@H](CC(C)C)C(=O)N3C[C@]4(C[C@H]3C#N)C(=O)Nc3ccccc34)nc12 [Example 252] | < 100 nM
CC(C)C[C@@H](C(=O)N1C[C@]2(C[C@H]1C#N)C(=O)Nc1ccccc12)N(C)C(=O)c1cc2cccnc2cc1OC(F)F [Example 253] | < 100 nM
CC(C)C[C@@H](C(=O)N1C[C@]2(C[C@H]1C#N)C(=O)Nc1ccccc12)N(C)C(=O)c1cc2ccc(=O)[nH]c2cc1OC1CC1 [Example 254] | < 100 nM
CC(C)C[C@@H](C(=O)N1C[C@]2(C[C@H]1C#N)C(=O)Nc1ccccc12)N(C)C(=O)c1cc(Cl)c2[nH]c(C3CC3)nc2c1 [Example 256] | < 100 nM
CC(C)C[C@@H](C(=O)N1C[C@]2(C[C@H]1C#N)C(=O)Nc1ccccc12)N(C)C(=O)c1ccc2nc(-c3ccccc3)ccc2c1 [Example 257] | 100 to 1000 nM
COc1cc(C(=O)N(C)[C@@H](CC(C)C)C(=O)N2C[C@]3(C[C@H]2C#N)C(=O)Nc2ccccc23)nc2ccccc12 [Example 258] | 100 to 1000 nM
Cc1cc(C)c2ccc(C(=O)N(C)[C@@H](CC(C)C)C(=O)N3C[C@]4(C[C@H]3C#N)C(=O)Nc3ccccc34)nc2c1O [Example 259] | 100 to 1000 nM
CC(C)C[C@@H](C(=O)N1C[C@]2(C[C@H]1C#N)C(=O)Nc1ccccc12)N(C)C(=O)c1cnc2ccccc2c1O [Example 260] | 100 to 1000 nM
CC(C)C[C@@H](C(=O)N1C[C@]2(C[C@H]1C#N)C(=O)Nc1ccccc12)N(C)C(=O)c1ccccc1-c1ccccc1 [Example 261] | 100 to 1000 nM
CC(C)C[C@@H](C(=O)N1C[C@]2(C[C@H]1C#N)C(=O)Nc1ccccc12)N(C)C(=O)c1cc(-c2ccccc2)ccc1Cl [Example 262] | 100 to 1000 nM
CC(C)C[C@@H](C(=O)N1C[C@]2(C[C@H]1C#N)C(=O)Nc1ccccc12)N(C)C(=O)c1cccc(-c2ccc(C(F)(F)F)cc2)c1 [Example 263] | 100 to 1000 nM
CC(C)C[C@@H](C(=O)N1C[C@]2(C[C@H]1C#N)C(=O)Nc1ccccc12)N(C)C(=O)c1cccc(-c2ccccc2F)c1 [Example 264] | 100 to 1000 nM
